# Target: T1, MurA enzyme (Bacillus subtilis, UniProt P70965)
# T1 construct: expressed in transfected cells
# Experiment: MurA-CFP enzyme localization (condensation) by fluorescence imaging in B. subtilis cells
# Assay type: cell-based
# Conditions: for state of MurA-CFP enzyme in the cell (localized or diffuse): exposure during exponential growth, 5 mM fosfomycin or 0.5 μg ml^−1 vancomycin, fluorescence imaging, 30° C.
# Method: Enzymatic activity of the MurA enzyme in Bacillus subtilis was measured in the presence of enzyme condensation modulating agents. MurA enzyme is involved in an enzymatic biosynthetic pathway that catalyzes a biosynthetic precursor of peptidoglycan, a polymer of the cell wall. The agents that were assessed for effects on MurA were antibiotics fosfomycin and vancomycin.
# The B. subtilis cells were cultivated to express a MurA-CFP conjugate protein (MurA-cyan fluorescent protein) under its natural promoter. After one hour in exponential growth, 1 ml of cell culture was centrifuged. The supernatant was collected and added to 2 ml of melted […] agarose solution in LB. The resulting 1.2% solution of molten agar/culture supernatant was supplemented with 0.5 μg ml^−1 FM 4-64 dye (N-(3-triethylammoniumpropyl)-4-(6-(4-(diethylamino) phenyl) hexatrienyl) pyridinium dibromide). Then 5 mM fosfomycin or 0.5 μg ml^−1 vancomycin was added to the well of a culture slide (wells 18 mm diameter×1.75 mm depth) and covered with a glass slide.
# After cooling, the cover glass was removed and two air pockets were cut out of the agarose with a 15 ml tube, leaving a 3-5 mm agar bridge in the center of the well. Seven microliters of the remaining culture was spread over the agar, partially dried and sealed with cover glass. After cooling, the slide was removed and two air pockets were cut out of the agar leaving a 3-5 mm agar bridge in the center of the well. Cells were suspended in LB with FM4-64 dye (0.5 μg ml^−1) and were added at the agar bridge and covered by a glass coverslip. To prevent drying during the experiment, 50% glycerol was applied to the region of contact between the slide and the coverslip.
# The slide was equilibrated in an environmentally controlled chamber at 30° C. (Precision Control Weather Station) for at least 10 min prior to visualization. […] After 2 hours of imaging, MurA-CFP expressing cells stopped growing, but the condensation of the enzyme could be detected by a bright fluorescent spot.
# T1 sequence (P70965 whole entry): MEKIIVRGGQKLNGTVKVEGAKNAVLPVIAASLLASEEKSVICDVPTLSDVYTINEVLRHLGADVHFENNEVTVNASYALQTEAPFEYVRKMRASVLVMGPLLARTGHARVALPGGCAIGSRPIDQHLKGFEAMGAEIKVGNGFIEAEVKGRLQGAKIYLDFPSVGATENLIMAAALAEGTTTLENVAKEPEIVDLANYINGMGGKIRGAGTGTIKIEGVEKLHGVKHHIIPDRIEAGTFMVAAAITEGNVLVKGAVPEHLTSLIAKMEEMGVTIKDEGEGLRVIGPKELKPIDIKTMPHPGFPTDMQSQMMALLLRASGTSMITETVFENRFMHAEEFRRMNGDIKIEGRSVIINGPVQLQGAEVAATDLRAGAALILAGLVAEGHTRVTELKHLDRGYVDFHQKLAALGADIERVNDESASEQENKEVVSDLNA
smiles,measurement,setting,value
"C[C@@H]1O[C@@H]1P(=O)(O)O [Fosfomycin, fosfomycin]",areas of localized MurA-CFP,added to the cells during stationary growth before MurA began to localize (not shown),not observed
same,state of MurA-CFP enzyme in the cell (localized or diffuse),,localized
"CN[C@H](CC(C)C)C(=O)N[C@H]1C(=O)N[C@@H](CC(N)=O)C(=O)N[C@H]2C(=O)N[C@H]3C(=O)N[C@H](C(=O)N[C@H](C(=O)O)c4cc(O)cc(O)c4-c4cc3ccc4O)[C@H](O)c3ccc(c(Cl)c3)Oc3cc2cc(c3O[C@@H]2O[C@H](CO)[C@@H](O)[C@H](O)[C@H]2O[C@H]2C[C@](C)(N)[C@H](O)[C@H](C)O2)Oc2ccc(cc2Cl)[C@H]1O [Vancomycin, vancomycin]",state of MurA-CFP enzyme in the cell (localized or diffuse),,diffuse

# — patent US10656158B2, “Identification of enzyme activity through determination of its localization” (International Business Machines Corporation, priority 2014, dated 2020)
